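Five compound concentrations were applied to cells in 96-well plates for 48 hours; endpoints were derived by simple linear interpolation of the resulting dose-response curve. TGI is the concentration that stops growth completely.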
Key:
Experiment in all cases: inhibition of tumour cell growth, NCI panel, 48 h
T-47D breast = system: T-47D breast
786-0 renal = system: 786-0 renal
A498 renal = system: A498 renal
OVCAR-3 ovarian = system: OVCAR-3 ovarian
U251 CNS = system: U251 CNS
CCRF-CEM leukemia = system: CCRF-CEM leukemia
HCT-15 colon = system: HCT-15 colon
TK-10 renal = system: TK-10 renal
PC-3 prostate = system: PC-3 prostate
HCT-116 colon = system: HCT-116 colon
SK-MEL-5 melanoma = system: SK-MEL-5 melanoma
SW-620 colon = system: SW-620 colon
LOX IMVI melanoma = system: LOX IMVI melanoma
NCI-H226 lung = system: NCI-H226 lung

SMILES | TGI (T-47D breast) [µM] | TGI (786-0 renal) [µM] | TGI (A498 renal) [µM] | TGI (OVCAR-3 ovarian) [µM] | TGI (U251 CNS) [µM] | TGI (CCRF-CEM leukemia) [µM] | TGI (HCT-15 colon) [µM] | TGI (TK-10 renal) [µM] | TGI (PC-3 prostate) [µM] | TGI (HCT-116 colon) [µM] | TGI (SK-MEL-5 melanoma) [µM] | TGI (SW-620 colon) [µM] | TGI (LOX IMVI melanoma) [µM] | TGI (NCI-H226 lung) [µM]
CC(=O)Nc1nc(C)c(S(=O)(=O)NC(=O)NC2NC(=O)NC2=O)s1 (stereo unspecified) | > 100 | > 100 | > 100 | > 100 | > 100 | > 100 | > 100 | > 100 | > 100 | > 100 | > 100 | > 100 | > 100 | 
CCOP(=O)(CC(=O)C1CC1)OCC | > 100 | > 100 |  |  | > 100 | > 100 | > 100 | > 100 | > 100 | > 100 | > 100 | > 100 | > 100 | > 100
Cc1cn(C2CC(n3cc(Cn4ccc(=O)[nH]c4=O)nn3)C(CO)O2)c(=O)[nH]c1=O (stereo unspecified) | > 100 |  | > 100 | > 100 | > 100 | > 100 | > 100 | > 100 | > 100 | > 100 | > 100 | > 100 |  | > 100
Cc1c(NC(=S)Nc2ccc([N+](=O)[O-])cc2)c(=O)n(-c2ccccc2)n1C |  | > 100 | > 100 | > 100 | > 100 | > 100 | > 100 | > 100 | > 100 | > 100 | > 100 | > 100 | > 100 | > 100
CO/C=C(/C(=O)OC)[C@@H]1C[C@@H]1c1ccc2ccccc2c1 | 78.5 | > 100 | > 100 | 73.9 | > 100 | 63.1 | 49.9 | > 100 | > 100 | 44.1 | 30.3 |  |  | > 100
COC(=O)C1CCC(=O)N1C(c1ccc(OC)cc1)c1cc(OC)c(OC)c(OC)c1 (stereo unspecified) | > 100 | > 100 |  | 0.597 | > 100 | > 100 | > 100 | > 100 | > 37.4 |  | 3.43 | > 100 | > 36.9 | 2.11
NCC(=O)Nc1ccccc1 | > 100 | > 100 | > 100 | > 100 | > 100 |  | > 100 | > 100 | > 100 | > 100 | > 100 | > 100 | > 100 | > 100
Cc1cc(N(CCC#N)CCC#N)ccc1/C(N=Nc1ccc([N+](=O)[O-])cc1)=N\NC(=O)c1cc(Cl)ccc1O | 97.9 | > 100 | 94.5 | 38.2 | > 100 | > 100 | > 100 | > 100 | > 100 | 88.1 | > 100 |  |  | 93
CC1C(C)(C)C23CC12C1(OCCO1)C3Br (stereo unspecified) |  | > 100 | > 100 | > 100 | > 100 | > 100 | > 100 | > 100 | > 100 | > 100 | > 100 | > 100 | > 100 | > 100
c1ccc2c3c(ccc2c1)-c1[nH]ncc1CCO3 |  |  | 99.7 | > 82.1 | 51.8 | > 100 | > 100 |  |  | > 88.5 | > 71.3 | > 100 | > 93.6 | 
COc1ccc(/[N+]([O-])=C/c2ccc(OC(=S)S)c(OC)c2)cc1 | 99.5 | > 100 | > 100 | > 100 | > 100 |  | > 100 | > 100 | > 100 | > 100 | 93.2 | > 100 | > 100 | > 100
CC(C)(C)c1ccc2c(c1)OP1(Oc3c(Cl)cc(Cl)c4cccnc34)(O2)Oc2ccc(C(C)(C)C)cc2O1 |  |  | 28.7 | 13.3 | 15.9 | > 100 | 19.9 |  |  | 17.4 | 22.1 | 23.5 | 19.2 | 29.1
Cc1nc(OCc2ccccc2)c2ncn(CCO)c2n1 |  | > 100 | > 100 | > 100 | > 100 | > 100 |  | > 100 | > 100 | > 100 | > 100 | > 100 | > 100 | > 100
CCOC(=O)c1c(N)sc2c1CC(C)CC2 (stereo unspecified) | > 100 | 55.3 |  | > 100 | > 100 |  | > 100 | > 100 | > 100 | > 100 | 37.7 | > 100 | > 100 | 64
CCOC(=O)c1c(O)cn2c1[nH]c1cccc3cccc2c31 | > 100 | > 100 | > 100 |  | > 100 | > 100 | > 100 | > 100 | > 100 | > 100 | > 100 | > 100 | > 100 | > 100
COC(=O)C(Cc1c[nH]c2ccccc12)NC(=O)C(Cc1cnc[nH]1)NC(=O)C1CCC(=O)N1C(=O)OCc1ccccc1 (stereo unspecified) | > 100 | > 100 | 68.3 |  | > 100 | > 100 |  | > 100 | > 100 | > 100 | > 100 | > 100 |  | > 100
COc1ccc(C2CC(c3c(O)ccc4ccccc34)=NN2)cc1OC (stereo unspecified) | 58.2 |  | 43.6 | 20.6 | 11 | > 100 | 18.6 | 14.4 | > 100 |  | 12.6 |  |  | 14.6
CN1CCC2(CC1)SSC1(CCN(C)CC1)S2 |  | > 100 |  |  | > 100 | > 100 | > 100 |  | > 100 | > 100 | > 100 | > 100 | > 100 | 
Cc1ccc2c(c1)nc1n2C(c2c(F)cccc2F)SC1 (stereo unspecified) | > 100 | > 100 |  | > 100 | > 100 | > 100 | 82.4 | > 100 | > 100 | 72.3 |  | > 100 | > 100 | > 100
Nn1c(CCCCCCCCc2nnc(-c3c(O)ccc4ccccc34)n2N)nnc1-c1c(O)ccc2ccccc12 | > 100 | > 100 |  | > 100 | > 100 |  | > 100 | > 100 | > 100 | > 100 | > 100 | > 100 | > 100 | > 100
CCCn1cc2c(=O)[nH]c(SC)nc2n1 |  |  | > 100 |  | > 100 | > 100 | > 100 | > 100 |  | > 100 | > 100 | > 100 | > 100 | 89.1
COC1OC2COC1(OCc1ccccc1)C1OC(C)(C)OC21 (stereo unspecified) | > 100 | > 100 | > 100 | > 100 | > 100 | > 100 | > 100 | > 100 | > 100 | > 100 | > 100 | > 100 |  | > 100
CCCCSC1=N/C(=C\c2ccccc2O)C(=O)N1 | > 100 | > 100 | > 100 | > 100 | > 100 |  | > 100 | > 100 | 92.6 | > 100 |  | > 100 | > 100 | > 100
O=P1(c2ccccc2)C(c2ccccc2)CCC1c1ccccc1 (stereo unspecified) |  | > 100 |  | > 100 |  | > 100 | > 100 | > 100 | > 100 | > 100 | > 100 | > 100 | > 100 | > 100
S=P1(Sc2ccccc2)Oc2ccc3ccccc3c2-c2c(ccc3ccccc23)O1 |  |  | > 100 | > 100 | > 100 | > 100 | > 100 |  |  | > 100 | > 100 | > 100 | > 100 | > 100
C=C(/C=C/C=C(\C)CCC=C(C)C)[C@@H]1CC[C@]2([C@H](CCCO)/C(=C(/C)C=O)CC[C@]2(C)O)[C@@H]1O |  |  |  |  | 28.5 | 48.8 | 34.2 | 66.2 |  |  | 53.1 | 40.7 | 31.9 | 56.2
Nc1nc(Cl)cc(NCC2(CCO)CCC2)n1 | > 100 | > 100 |  | > 100 | > 100 | > 100 | > 100 | > 100 | > 100 | > 100 | > 100 | > 100 | > 100 | > 100
Cc1nc2c(c(N3CCN(C)CC3)n1)Cc1ccccc1-2 | > 100 | > 100 |  |  | > 100 | > 100 | > 100 | 88.1 | > 100 | > 100 | > 100 | > 100 |  | > 100
COc1ccc(/C=C2\N=C(N3CCCC(CO)C3)NC2=O)cc1 (stereo unspecified) | > 100 | > 100 |  | > 100 | > 100 | > 100 | > 100 | > 100 | > 100 | > 100 | > 100 | > 100 | > 100 | > 100

Reference: PubChem BioAssay (NCI)
